Assay results as given in ChEMBL document CHEMBL1137396, “Discovery of (1R,5S)-N-[3-amino-1-(cyclobutylmethyl)-2,3-dioxopropyl]- 3-[2(S)-[[[(1,1-dimethylethyl)amino]carbonyl]amino]-3,3-dimethyl-1-oxobutyl]- 6,6-dimethyl-3-azabicyclo[3.1.0]hexan-2(S)-carboxamide (SCH 503034), a selective, potent, orally bioavailable hepatitis C virus NS3 protease …” (J Med Chem, 2006).

Legend:
[1] = Selectivity for human neutrophil elastase (HNE) over HCV NS3 protease
NS3 = NS3 (Hepatitis C virus, UniProt A3EZJ3); experiment: Binding affinity at HCV NS3 protease; parameters: species or system Hepatitis C virus subtype 1b
[2] = AUC(0-6h) in rat at 10 mg, po; type: ADME, organism-based; parameters: time < 6 hr, dose 10 mg, route oral; details: plasma
Hepatocyte = experiment: Inhibition of HCV replication in hepatocytes measured by cellular replicon assay; type: functional; details: Hepatitis C virus
[3] = AUC in rat at 10 mg/kg, po; type: ADME, organism-based; parameters: dose 10 mg/kg, route oral; details: plasma
Huh-5-2 = experiment: Cytotoxicity against hepatoma cell line containing HCV replicon measured as change in GAPDH RNA level; type: functional, Homo sapiens
[4] = Bioavailability in rat at 10 mg/kg, po; type: ADME, organism-based; details: in vivo
[5] = AUC in rat; type: ADME, organism-based; details: plasma

Chain of NS3 (A3EZJ3 whole entry): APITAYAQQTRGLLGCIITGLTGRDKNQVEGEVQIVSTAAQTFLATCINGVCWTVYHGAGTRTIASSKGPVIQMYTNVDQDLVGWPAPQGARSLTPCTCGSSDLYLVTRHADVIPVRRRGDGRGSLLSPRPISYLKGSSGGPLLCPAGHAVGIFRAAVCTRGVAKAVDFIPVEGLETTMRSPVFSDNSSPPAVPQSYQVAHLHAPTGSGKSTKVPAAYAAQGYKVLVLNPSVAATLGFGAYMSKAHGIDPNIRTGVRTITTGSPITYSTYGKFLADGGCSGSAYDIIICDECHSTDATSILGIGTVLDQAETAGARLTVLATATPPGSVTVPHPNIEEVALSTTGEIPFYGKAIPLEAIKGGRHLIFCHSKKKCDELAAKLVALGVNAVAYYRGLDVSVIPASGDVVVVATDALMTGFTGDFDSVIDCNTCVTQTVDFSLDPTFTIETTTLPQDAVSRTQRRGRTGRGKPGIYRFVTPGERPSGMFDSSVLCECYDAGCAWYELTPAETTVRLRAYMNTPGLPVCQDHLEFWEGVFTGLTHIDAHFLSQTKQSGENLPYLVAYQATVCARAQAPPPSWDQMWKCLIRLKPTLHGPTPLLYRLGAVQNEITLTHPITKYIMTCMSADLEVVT

| Structure (SMILES) | Selectivity ratio [1] | Ki (NS3) [nM] | also measured |
| --- | --- | --- | --- |
| C=CCCC(NC(=O)[C@@H]1[C@@H]2[C@H](CN1C(=O)[C@@H](NC(=O)OC(C)(C)C)C1CCCCC1)C2(C)C)C(=O)C(N)=O (stereo partly drawn) | 2 | 150 |  |
| CC(C)COC(=O)N[C@H](C(=O)N1C[C@H]2[C@@H]([C@H]1C(=O)NC(CC1CC1)C(=O)C(N)=O)C2(C)C)C(C)(C)C (stereo partly drawn) | 160 | 70 |  |
| CC(C)(C)OC(=O)N[C@H](C(=O)N1C[C@H]2[C@@H]([C@H]1C(=O)NC(CC1CC1)C(=O)C(N)=O)C2(C)C)C1CCCCC1 (stereo partly drawn) | 23 | 25 | EC90 (Hepatocyte): 400 nM; AUC [3]: 1.3 µM·h; Activity (Huh-5-2): >5 µM; bioavailability [4]: 3.4% |
| CC(C)(C)NC(=O)N[C@H](C(=O)N1C[C@H]2[C@@H]([C@H]1C(=O)NC(CC1CC1)C(=O)C(N)=O)C2(C)C)C1CCCCC1 (stereo partly drawn) | 38 | 50 |  |
| CC(C)(C)OC(=O)N[C@H](C(=O)N1C[C@H]2[C@@H]([C@H]1C(=O)NC(CC1CC1)C(=O)C(N)=O)C2(C)C)C1(C)CC1 (stereo partly drawn) |  | 300 |  |
| CC(C)(C)OC(=O)N[C@H](C(=O)N1C[C@H]2[C@@H]([C@H]1C(=O)NC(CC1COC1)C(=O)C(N)=O)C2(C)C)C1CCCCC1 (stereo partly drawn) |  | 400 | EC90 (Hepatocyte): > 1000 nM; Activity (Huh-5-2): >5 µM |
| C[C@@H](NC(=O)N[C@H](C(=O)N1C[C@H]2[C@@H]([C@H]1C(=O)NC(CC1CCC1)C(=O)C(N)=O)C2(C)C)C(C)(C)C)C(C)(C)C (stereo partly drawn) | 380 | 35 | EC90 (Hepatocyte): 400 nM; Activity (Huh-5-2): >5 µM |
| CC(C)(C)OC(=O)N[C@H](C(=O)N1C[C@H]2[C@@H](C1C(=O)NC(CC1CCO1)C(=O)C(N)=O)C2(C)C)C1CCCCC1 (stereo partly drawn) | 140 | 90 |  |
| CC1(NC(=O)N[C@H](C(=O)N2C[C@H]3[C@@H]([C@H]2C(=O)NC(CC2CC2)C(=O)C(N)=O)C3(C)C)C(C)(C)C)CC1 (stereo partly drawn) | 100 | 80 | EC90 (Hepatocyte): 900 nM; Activity (Huh-5-2): >5 µM |
| CN(C(=O)N[C@H](C(=O)N1C[C@H]2[C@@H]([C@H]1C(=O)NC(CC1CC1)C(=O)C(N)=O)C2(C)C)C(C)(C)C)C(C)(C)C (stereo partly drawn) | 45 | 60 | EC90 (Hepatocyte): > 1000 nM; Activity (Huh-5-2): >5 µM |
| CC(C)(C)OC(=O)N[C@H](C(=O)N1C[C@H]2[C@@H](C1C(=O)NC(CC(F)(F)F)C(=O)C(N)=O)C2(C)C)C1CCCCC1 (stereo partly drawn) | 2 | 50 | EC90 (Hepatocyte): 700 nM; Activity (Huh-5-2): >5 µM |
| CC(C)(C)OC(=O)N[C@H](C(=O)N1C[C@H]2[C@@H]([C@H]1C(=O)NC(CC1CC1)C(=O)C(N)=O)C2(C)C)C1CCCC1 (stereo partly drawn) | 11 | 100 |  |
| CC(C)(C)NC(=O)N[C@H](C(=O)N1C[C@H]2[C@@H]([C@H]1C(=O)NC(CC1CCC1)C(=O)C(N)=O)C2(C)C)C1CCCCC1 (stereo partly drawn) | 90 | 50 |  |
| CC(C)[C@H](C)OC(=O)N[C@H](C(=O)N1C[C@H]2[C@@H]([C@H]1C(=O)NC(CC1CCC1)C(=O)C(N)=O)C2(C)C)C(C)(C)C (stereo partly drawn) | 3800 | 36 | EC90 (Hepatocyte): 700 nM; Activity (Huh-5-2): >5 µM |
| CC(C)(C)OC(=O)N[C@H](C(=O)N1C[C@H]2[C@@H]([C@H]1C(=O)NC(CC1CC1)C(=O)C(N)=O)C2(C)C)C1Cc2ccccc2C1 (stereo partly drawn) | 49 | 82 | EC90 (Hepatocyte): > 1000 nM; Activity (Huh-5-2): >5 µM |
| C=C(C)CC(NC(=O)[C@@H]1[C@@H]2[C@H](CN1C(=O)[C@@H](NC(=O)OC(C)(C)C)C1CCCCC1)C2(C)C)C(=O)C(N)=O (stereo partly drawn) | 2 | 300 |  |
| CC(C)[C@H](NC(=O)OC(C)(C)C)C(=O)N1C[C@H]2[C@@H]([C@H]1C(=O)NC(CC1CC1)C(=O)C(N)=O)C2(C)C (stereo partly drawn) | 19 | 210 |  |
| CC(C)(C)OC(=O)N[C@H](C(=O)N1C[C@H]2[C@@H]([C@H]1C(=O)NC(CC1CCCCC1)C(=O)C(N)=O)C2(C)C)C1CCCCC1 (stereo partly drawn) |  | > 12000 |  |
| CC(C)NC(=O)N[C@H](C(=O)N1C[C@H]2[C@@H]([C@H]1C(=O)NC(CC1CC1)C(=O)C(N)=O)C2(C)C)C(C)(C)C (stereo partly drawn) | 160 | 140 |  |
| CC(C)(C)OC(=O)N[C@H](C(=O)N1C[C@H]2[C@@H]([C@H]1C(=O)NC(CC1CCC1)C(=O)C(N)=O)C2(C)C)C1(C)CC1 (stereo partly drawn) |  | 700 |  |
| CC(C)(C)OC(=O)N[C@H](C(=O)N1C[C@H]2[C@@H]([C@H]1C(=O)NC1(C(=O)C(N)=O)CC1)C2(C)C)C1CCCCC1 |  | > 14000 |  |
| CC(C)(C)OC(=O)N[C@H](C(=O)N1C[C@H]2[C@@H]([C@H]1C(=O)NC(CC1CCC1)C(=O)C(N)=O)C2(C)C)C1Cc2ccccc2C1 (stereo partly drawn) |  | 270 | EC90 (Hepatocyte): 2000 nM; Activity (Huh-5-2): >5 µM |
| CC(C)(C)[C@H](NC(=O)OC1CC1)C(=O)N1C[C@H]2[C@@H]([C@H]1C(=O)NC(CC1CC1)C(=O)C(N)=O)C2(C)C (stereo partly drawn) |  | 300 |  |
| CC(C)OC(=O)N[C@H](C(=O)N1C[C@H]2[C@@H]([C@H]1C(=O)NC(CC1CC1)C(=O)C(N)=O)C2(C)C)C(C)(C)C (stereo partly drawn) | 100 | 150 |  |
| CC(C)(C)OC(=O)N[C@H](C(=O)N1C[C@H]2[C@@H]([C@H]1C(=O)NC(CC1CC1)C(=O)C(N)=O)C2(C)C)C(C)(C)C (stereo partly drawn) |  |  | EC90 (Hepatocyte): 600 nM; Activity (Huh-5-2): >5 µM |
| CC(C)(C)OC(=O)N[C@H](C(=O)N1C[C@H]2[C@@H]([C@H]1C(=O)NC(CC1CCC1)C(=O)C(N)=O)C2(C)C)C(C)(C)C (stereo partly drawn) | 684 | 76 | EC90 (Hepatocyte): 800 nM; Activity (Huh-5-2): >5 µM |
| CN(C(=O)N[C@H](C(=O)N1C[C@H]2[C@@H]([C@H]1C(=O)NC(CC1CCC1)C(=O)C(N)=O)C2(C)C)C(C)(C)C)C(C)(C)C (stereo partly drawn) | 270 | 100 |  |
| CC(C)(C)OC(=O)N[C@H](C(=O)N1C[C@H]2[C@@H]([C@H]1C(=O)NC(CC1CCCC1)C(=O)C(N)=O)C2(C)C)C1CCCCC1 (stereo partly drawn) | 370 | 150 |  |
| CC(C)(C)OC(=O)N[C@H](C(=O)N1C[C@H]2[C@@H]([C@H]1C(=O)NC(CC1CCC1)C(=O)C(N)=O)C2(C)C)C(C)(C)O (stereo partly drawn) | 55 | 220 |  |
| CC(C)NC(=O)N[C@H](C(=O)N1C[C@H]2[C@@H]([C@H]1C(=O)NC(CC1CCC1)C(=O)C(N)=O)C2(C)C)C(C)(C)C (stereo partly drawn) | 4200 | 16 | EC90 (Hepatocyte): 730 nM; AUC [3]: 0.83 µM·h; Activity (Huh-5-2): >5 µM; bioavailability [4]: 13% |

Now from value to molecule, other results behind:

| Selectivity ratio [1] | Ki (NS3) [nM] | Structure (SMILES) | also measured |
| --- | --- | --- | --- |
|  | 790 | CCCC(NC(=O)[C@@H]1[C@@H]2[C@H](CN1C(=O)[C@@H](NC(=O)OC(C)(C)C)C1CCCCC1)C2(C)C)C(=O)C(=O)NCC(N)=O (stereo partly drawn) |  |
| 3 | 100 | CCCC(NC(=O)[C@@H]1[C@@H]2[C@H](CN1C(=O)[C@@H](NC(=O)OC(C)(C)C)C1CCCCC1)C2(C)C)C(=O)C(N)=O (stereo partly drawn) | AUC(0-t) at 6 h [2]: 2.52 µM·h |
|  | 55 | CCCC(NC(=O)[C@@H]1[C@@H]2[C@H](CN1C(=O)[C@@H](NC(=O)OC(C)(C)C)C1CCCCC1)C2(C)C)C(=O)C(=O)NCC(=O)N[C@H](C)c1ccccc1 (stereo partly drawn) |  |
|  | > 13000 | CCCC(NC(=O)[C@@H]1[C@@H]2[C@H](CN1C(=O)[C@@H](NC(=O)OC(C)(C)C)C1CCCCC1)C2(C)C)C(=O)C(=O)N(C)C (stereo partly drawn) |  |
|  | 130 | CCCC(NC(=O)[C@@H]1[C@@H]2[C@H](CN1C(=O)[C@@H](NC(=O)OC(C)(C)C)C1CCCCC1)C2(C)C)C(=O)C(=O)NCC(=O)NCC1CC1 (stereo partly drawn) |  |
|  | 60 | CCCC(NC(=O)[C@@H]1[C@@H]2[C@H](CN1C(=O)[C@@H](NC(=O)OC(C)(C)C)C1CCCCC1)C2(C)C)C(=O)C(=O)NCC(=O)NCc1cccs1 (stereo partly drawn) | AUC [5]: 0.73 µM·h |
|  | 280 | C=CCNC(=O)C(=O)C(CCC)NC(=O)[C@@H]1[C@@H]2[C@H](CN1C(=O)[C@@H](NC(=O)OC(C)(C)C)C1CCCCC1)C2(C)C (stereo partly drawn) | AUC(0-t) at 6 h [2]: 26 µM·h |
|  | 56 | CCCC(NC(=O)[C@@H]1[C@@H]2[C@H](CN1C(=O)[C@@H](NC(=O)OC(C)(C)C)C1CCCCC1)C2(C)C)C(=O)C(=O)NCC(=O)NCc1ccccc1 (stereo partly drawn) | AUC [5]: 1.27 µM·h |
|  | 1900 | CCCCNC(=O)C(=O)C(CCC)NC(=O)[C@@H]1[C@@H]2[C@H](CN1C(=O)[C@@H](NC(=O)OC(C)(C)C)C1CCCCC1)C2(C)C (stereo partly drawn) |  |
|  | 740 | CCC(NC(=O)[C@@H]1[C@@H]2[C@H](CN1C(=O)[C@@H](NC(=O)OC(C)(C)C)C1CCCCC1)C2(C)C)C(=O)C(N)=O (stereo partly drawn) |  |
| 9 | 400 | CC(C)CC(NC(=O)[C@@H]1[C@@H]2[C@H](CN1C(=O)[C@@H](NC(=O)OC(C)(C)C)C1CCCCC1)C2(C)C)C(=O)C(N)=O (stereo partly drawn) |  |
|  | 92 | CCCC(NC(=O)[C@@H]1[C@@H]2[C@H](CN1C(=O)[C@@H](NC(=O)OC(C)(C)C)C1CCCCC1)C2(C)C)C(=O)C(=O)NCC(=O)N[C@@H](C)C1CCCCC1 (stereo partly drawn) |  |
|  | 1500 | CCCC(NC(=O)[C@@H]1[C@@H]2[C@H](CN1C(=O)[C@@H](NC(=O)OC(C)(C)C)C1CCCCC1)C2(C)C)C(=O)C(=O)NC (stereo partly drawn) | AUC(0-t) at 6 h [2]: 13.4 µM·h |
|  | 50 | CCCC(NC(=O)[C@@H]1[C@@H]2[C@H](CN1C(=O)[C@@H](NC(=O)OC(C)(C)C)C1CCCCC1)C2(C)C)C(=O)C(=O)NCC(=O)OC(C)(C)c1ccccc1 (stereo partly drawn) |  |
|  | 100 | CCCC(NC(=O)[C@@H]1[C@@H]2[C@H](CN1C(=O)[C@@H](NC(=O)OC(C)(C)C)C1CCCCC1)C2(C)C)C(=O)C(=O)NCC(=O)N[C@H](C)C1CCCCC1 (stereo partly drawn) | AUC [5]: 0.09 µM·h |
|  | 110 | CCCC(NC(=O)[C@@H]1[C@@H]2[C@H](CN1C(=O)[C@@H](NC(=O)OC(C)(C)C)C1CCCCC1)C2(C)C)C(=O)C(=O)O (stereo partly drawn) |  |
